Laboratory results published in article PMC12769732 (Nature Communications, 2025).
Read-outs that look alike come from different tables or passages of the source.

Key:
DAT V152A = DAT V152A (Homo sapiens, UniProt Q01959, V152A); assay: [3H]Dopamine transport assay, DAT V152A mutant; format: cell-based
SERT [1] = conditions: cited from earlier work
DAT WT = DAT WT (Homo sapiens, UniProt Q01959); assay: [3H]Dopamine transport assay, wild-type DAT; format: cell-based
DAT [2] = conditions: cited from earlier work
NET = conditions: cited from earlier work
DAT F326A = DAT F326A (Homo sapiens, UniProt Q01959, F326A); assay: [3H]Dopamine transport assay, DAT F326A mutant; format: cell-based; conditions: for IC50: IC50 of [3H]dopamine uptake, F326A mutant of DAT, HEK-293F cells, n = 3
DAT [3] = assay: Reported inhibition of DAT; format: biochemical; conditions: relative to tesofensine
DAT S422A = DAT S422A (Homo sapiens, UniProt Q01959, S422A); assay: [3H]Dopamine transport assay, DAT S422A mutant; format: cell-based
SERT [4] = conditions: ref 75 (El-Kasaby A, et al.); cited from earlier work
SERT [5] = conditions: read-out: reported equilibrium dissociation constant (KD) for SERT; cited from earlier work
DAT [6] = molecular target: DAT (Homo sapiens, UniProt Q01959); conditions: close analog of nefazodone; no reference given; cited from earlier work
Sequence of DAT (Homo sapiens, UniProt Q01959) (Q01959 whole entry): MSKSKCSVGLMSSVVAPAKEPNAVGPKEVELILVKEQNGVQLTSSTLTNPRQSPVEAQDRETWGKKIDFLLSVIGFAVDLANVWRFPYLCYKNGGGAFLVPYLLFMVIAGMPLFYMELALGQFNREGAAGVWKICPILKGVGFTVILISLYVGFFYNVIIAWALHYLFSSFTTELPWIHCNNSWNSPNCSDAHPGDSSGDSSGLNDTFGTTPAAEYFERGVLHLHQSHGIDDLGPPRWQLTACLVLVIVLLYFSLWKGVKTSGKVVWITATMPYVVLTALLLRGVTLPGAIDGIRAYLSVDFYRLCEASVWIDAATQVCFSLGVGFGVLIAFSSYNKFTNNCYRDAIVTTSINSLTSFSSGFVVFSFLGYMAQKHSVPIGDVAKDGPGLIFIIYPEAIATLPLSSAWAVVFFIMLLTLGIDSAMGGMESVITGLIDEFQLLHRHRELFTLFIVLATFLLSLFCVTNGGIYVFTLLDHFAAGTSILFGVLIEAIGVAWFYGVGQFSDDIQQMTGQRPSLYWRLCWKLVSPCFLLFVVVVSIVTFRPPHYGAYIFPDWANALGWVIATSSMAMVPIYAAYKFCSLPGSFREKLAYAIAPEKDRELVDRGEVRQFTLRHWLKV

Sequence of DAT F326A (Q01959 57-620 F326A limits assumed): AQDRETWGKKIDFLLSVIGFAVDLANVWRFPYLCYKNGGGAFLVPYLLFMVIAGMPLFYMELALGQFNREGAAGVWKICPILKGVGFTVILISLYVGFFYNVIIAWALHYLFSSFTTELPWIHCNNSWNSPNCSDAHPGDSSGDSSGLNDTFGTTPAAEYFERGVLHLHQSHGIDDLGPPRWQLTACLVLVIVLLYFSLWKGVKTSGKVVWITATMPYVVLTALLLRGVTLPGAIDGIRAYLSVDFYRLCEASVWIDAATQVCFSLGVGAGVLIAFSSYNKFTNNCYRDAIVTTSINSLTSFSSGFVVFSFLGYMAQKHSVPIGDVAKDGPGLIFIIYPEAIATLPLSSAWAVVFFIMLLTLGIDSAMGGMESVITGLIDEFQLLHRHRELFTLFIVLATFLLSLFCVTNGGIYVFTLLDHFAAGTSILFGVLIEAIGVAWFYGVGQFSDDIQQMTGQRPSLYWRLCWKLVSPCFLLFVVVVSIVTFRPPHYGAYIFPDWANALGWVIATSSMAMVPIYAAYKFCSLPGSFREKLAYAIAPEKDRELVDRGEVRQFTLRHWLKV
Sequence of DAT V152A (Q01959 57-620 V152A limits assumed): as the sequence (Q01959 57-620 F326A limits assumed) above, with V96A, A270F counted along it
Sequence of DAT WT (Q01959 57-620 limits assumed): as the sequence (Q01959 57-620 F326A limits assumed) above, with A270F counted along it
Sequence of DAT S422A (Q01959 57-620 S422A limits assumed): as the sequence (Q01959 57-620 F326A limits assumed) above, with A270F, S366A counted along it

For `c1ccc2cc([C@]34CNC[C@H]3C4)ccc2c1` [centanafadine], the IC50 (DAT V152A) is listed as 246 nM, the “change of IC50 versus DAT WT” value (DAT V152A; V152A mutant versus WT) is listed as “nearly doubling” and the IC50 (SERT [1]; read-out: IC50 of serotonin reuptake) is listed as 83 nM. For the same compound, the IC50 (DAT WT) was 116 nM, the IC50 (DAT [2]; read-out: IC50 of dopamine reuptake) was 38 nM and the IC50 (NET; read-out: IC50 of norepinephrine reuptake) was 6 nM. The IC50 (DAT F326A) was 2090 nM.

In the case of `COC(=O)[C@H]1[C@@H](OC(=O)c2ccccc2)C[C@@H]2CC[C@H]1N2C` [cocaine], the “fold lower affinity for DAT than tesofensine” value (DAT [3]) is reported as 50 fold.

For `N[C@@H]1CC[C@@H](c2ccc(Cl)c(Cl)c2)c2ccccc21` [dasotraline], the IC50 (SERT [1]; read-out: reported IC50 on SERT) is given as 15 nM, the IC50 (DAT WT) is given as 2.43 nM and the IC50 (DAT [2]; read-out: reported IC50 on DAT) is given as 3 nM. The IC50 (NET; read-out: reported IC50 on NET) was 4 nM, the IC50 (DAT S422A) was 4700 nM and the “fold increase of IC50 versus DAT WT” value (DAT S422A; S422A mutant versus WT) was 1900 fold. The “fold increase of IC50 (decrease of inhibitory potency) versus DAT WT” value (DAT F326A; F326A mutant versus WT) was “approximately 1500 fold” and the IC50 (DAT F326A) was 3740 nM.

In the case of `CCc1nn(CCCN2CCN(c3cccc(Cl)c3)CC2)c(=O)n1CCOc1ccccc1` [nefazodone], the “mode of inhibition of SERT” value (SERT [4]) is given as “non-competitive” and the Kd (SERT [5]) is given as 200 nM.

For `O=c1n(CCCN2CCN(c3cccc(Cl)c3)CC2)nc2ccccn12` [trazodone], the “affinity for DAT compared with nefazodone” value (DAT [6]) is given as “markedly reduced”.
